One sequence from US10729636B2, “Compositions comprising peptide [sequence]” (NURITAS LIMITED, priority 2016, dated 2020) can be followed below.

Assay [1] concerns HSkMC cells. Description: QPCR on specific genes of interest. It counts as cell-based. The following applies: 0.5 ug/ml, normalised by B2M, over control. As to the method:
A volume of 2 ml of HSkMC cells were seeded in a 6 cm plate, pre-coated with collagen, at a concentration of 2×10^5 cells. Cells were allowed to adhere overnight at 37° C. 5% CO2 and the following day the growth media was replaced with 2 ml of cell differentiation media and returned to the incubator at 37° C. 5% CO2. The cell differentiation media was changed every 2 days for a period of 6 days, until the HSkMC cells were fully differentiated into myotubes. On day 7, the cell differentiation media was replaced with 2 ml of basal media and starved overnight at 37° C. 5% CO2.
On the day of the experiment, the starvation media was removed and replaced with 2 ml of basal media containing 0.5 ug/ml of SEQUENCE ID NO: 1. Untreated cells were run in parallel. The cells were incubated in this treatment for a period of 20 min at 37° C. 5% CO2, at which point the treatment media was removed and the cells were scraped in 1 ml of PBS. The cell suspension was pelleted in a microcentrifuge at 1500 rpm for 5 min, and the supernatant was removed. The cells were immediately flash frozen in liquid nitrogen and transferred to a −80° C. freezer for storage until dispatched to CROs.
Quantitative PCR was performed using a TaqMan probe based method, where target mRNA expression was quantified relative to the expression of the B2M housekeeping gene. A master mix containing primer/probe and Taqman® Gene Expression Master Mix (ABI Biosystems, CA, USA) was added to 1 μl of cDNA template. A final volume of 10 μl was pipetted into a well of a 96-well Lightcycler plate (Sarstedt, Nümbrecht, Germany) in duplicate and real time PCR was performed on a Roche Lightcycler 96 (Roche Diagnostics, Basal, Switzerland) real time thermal cycler. The threshold cycle (Ct) for each well was calculated using the instrument software. Data analysis was based on the ΔΔCt method with raw data normalised by the B2M housekeeping gene included on the plate. Results are expressed as fold change over control.
QPCR results (methods of treatment remains the same; concentration of SEQ ID 1 remains 0.5 ug/ml)

The subject of assay [2] is Human Dermal Fibroblasts (HDF). Kind of assay: Elastin production assay (ELISA). It is filed as cell-based. The settings on record: 5, 1 or 0.1 μg/ml, 96 h, compared with untreated control, FIG. 4. As to the method: Elastin is a highly elastic protein in connective tissue and allows many tissues in the body to resume their shape after stretching or contracting. […] Human Elastin ELISA kit assay is designed to measure Elastin in tissue or protein/peptide compositions.
Human Dermal Fibroblasts (HDF) were seeded in 24 well plates at 50,000 cells per well in DMEM containing 10% fetal calf serum (FCS), 1% Pen/strep, 1% L-glutamine and allowed to adhere for 24 h.
Following the initial 24 h incubation the cells were incubated with 5 μg/ml, 1 μg/ml or 0.1 μg/ml synthetic peptide for 96 h respectively.
After treatment, the cells were lysed using cell lysis buffer and sonicated for 10 seconds. The lysed cells were centrifuged and the supernatant was removed from each sample. Total protein concentration was determined using a BCA assay. Each sample was diluted in assay buffer to contain 10 μg total protein. 50 μl of each sample was then assayed using the […] Human Elastin ELISA kit. All steps were carried out according to the manufacturer's instructions.
In general terms: ELISA stands for enzyme-linked immunosorbent assay.

For assay [3], the system named is KK.Cg-Ay/J (KKAY mouse). Kind of assay: Blood glucose management in a mouse model of obesity and diabetes. It is filed as in vivo. The settings on record: KKAY mice; 100 μM/kg subcutaneous injection; after 7 days of treatment. The procedure:
(§1) • Species—KK.Cg-Ay/J (KKAY mouse) • Source—Jackson Laboratories • Age—12 weeks of age • Gender—Male • Randomization—Based on baseline fasting glucose Housing and Feeding: • Acclimation—Not less than five days • Housing • Mice will be housed on a 12 hr light/dark cycle • No more than 4 mice per cage depending on size • Ventilated cage rack system • Diet—Standard rodent chow and water ad libitum Design: • Route of administration:—Subcutaneous injection • Dose Volume(s)—10 mL/kg • Dose Levels—Test articles: 100 μM/kg, Metformin: 250 mg/kg • Number per group—10 • Total number of animals—30

Assay [4] has as its system HACAT cells. Kind of assay: Glucose uptake (2-DG), HACAT. It is filed as cell-based. The settings on record: compared with untreated control, FIG. 5. As to the method: Glucose uptake in skeletal muscle cells was measured using 2-deoxyglucose (2-DG). 2-DG is taken up by glucose transporters and metabolized to 2-DG-6-phosphate (2-DG6P). The amount of accumulated non-metabolized 2-DG6P is proportional to glucose uptake by cells.
Following stimulation, the cells were incubated with 10 μl/well of 2-DG solution for 40 min and glucose uptake was measured using the ‘PrismColor Glucose Uptake Assay Kit’ (Molecutools), all steps were carried out according to the manufacturer's instructions. The experiment was repeated using HACAT cells.

Assay [5] can be described thus: Body weight of KKAY mice. It counts as in vivo, mouse. The settings on record: 100 μM/kg subcutaneous injection, 13 days of treatment. As to the method:
as §1

Assay [6] concerns protein synthesis. Description: Puromycin ELISA (protein synthesis). It counts as cell-based. The settings on record: FIG. 10. The text has this:
Puromycin is an aminonucleoside antibiotic produced by the bacterium Streptomyces alboniger. It is a structural analogue of aminoacyl-transfer RNA and, as such, can be incorporated into elongating peptide chains via the formation of a peptide bond. However, whereas aminoacyl-tRNAs contain a hydrolyzable ester bond, puromycin hasn't it in the equivalent position. Thus, the binding of puromycin to a growing peptide chain prevents a new peptide bond from being formed with the next aminoacyl-tRNA. As a consequence, puromycin binding results in the termination of peptide elongation, and leads to the release of the truncated puromycin bound peptide from the ribosome. […] This later property makes puromycin a potential tool for the measurement of changes in protein synthesis rates.
1. Dispense […] Coating Buffer per well in the required number of wells in a 96 well ELISA plate. Dilute and mix the Protein extract (in the same buffer the sample is in) to […]. Immediately dispense 1 μl/well into plate.
2. Incubate the plate at 4° C. for 16-24 h.
3. Vigorously shake out contents. Wash 1× with 200 ul PBS.
4. Add 200 μl Blocking Solution (5% BSA in PBS). Incubate over the day 4-6 h at RT.
5. Dilute Puromycin antibody in Blocking solution and incubate overnight at 4° C.
8. Wash 2× with 200 ul PBS
9. […]
12. Add Stop solution and read the plate at 450 nm.

For WKDEAGKPLVK [SEQ ID NO. 1], the Fold change in assay [1] (ACVR2B) is recorded as 0.48 fold; in assay [1] (Adiponectin), 1.07 fold; in assay [1] (COX4I1), 0.85 fold; in assay [1] (FBXO32), 1.00 fold; in assay [1] (GLUT4), 1.95 fold; in assay [1] (HSPA2), 0.67 fold. The Fold change in assay [1] (LEPR) stood at 1.20 fold; in assay [1] (Leptin), 0.51 fold; in assay [1] (MSTN), 0.17 fold; in assay [1] (MYOG), 0.70 fold; in assay [1] (NRF1) it was 0.54 fold; in assay [1] (PPARGC1A) it was 0.69 fold. In addition, the Fold change in assay [1] (PRKAG3) is 0.35 fold; in assay [1] (SIRT), 0.41 fold; in assay [1] (TRIM63), 0.70 fold; in assay [1] (UQCRB), 2.56 fold. For the same sequence, the elastin production entry in assay [2] is listed as “increase”. The blood glucose result in assay [3] is recorded as “significantly reduced”. Moreover, in assay [4], the glucose uptake result is reported as “increase”. For the same sequence, the “body weight relative to the untreated group” value in assay [5] is recorded as “reduced body weight”. The “increase in body weight” value in assay [5] is given as “did not cause an increase”. For the same sequence, in assay [6], the protein synthesis result is on record as “increase”.
